ChEMBL document CHEMBL5046228 (Eur J Med Chem, 2022)

Columns and labels:
[1] = molecular target: Epidermal growth factor receptor (Homo sapiens, UniProt P00533); assay: Inhibition of wild type EGFR (unknown origin) using flurogenic substrate in presence of ATP by HTRF assay
NCI-H1975 = assay: Induction of apoptosis in human NCI-H1975 cells assessed as increase in early apoptotic cells at 0.02 uM after 36 hrs by annexin-V-FITC/PI staining based flow cytometric analysis (reference value: 1.24%); format: functional
NCI-H1299 = assay: Induction of apoptosis in human NCI-H1299 cells assessed as increase in necrotic cells at 0.02 uM after 36 hrs by annexin-V-FITC/PI staining based flow cytometric analysis (reference value: 0.75%); format: functional

Chain of Epidermal growth factor receptor (P00533 whole entry): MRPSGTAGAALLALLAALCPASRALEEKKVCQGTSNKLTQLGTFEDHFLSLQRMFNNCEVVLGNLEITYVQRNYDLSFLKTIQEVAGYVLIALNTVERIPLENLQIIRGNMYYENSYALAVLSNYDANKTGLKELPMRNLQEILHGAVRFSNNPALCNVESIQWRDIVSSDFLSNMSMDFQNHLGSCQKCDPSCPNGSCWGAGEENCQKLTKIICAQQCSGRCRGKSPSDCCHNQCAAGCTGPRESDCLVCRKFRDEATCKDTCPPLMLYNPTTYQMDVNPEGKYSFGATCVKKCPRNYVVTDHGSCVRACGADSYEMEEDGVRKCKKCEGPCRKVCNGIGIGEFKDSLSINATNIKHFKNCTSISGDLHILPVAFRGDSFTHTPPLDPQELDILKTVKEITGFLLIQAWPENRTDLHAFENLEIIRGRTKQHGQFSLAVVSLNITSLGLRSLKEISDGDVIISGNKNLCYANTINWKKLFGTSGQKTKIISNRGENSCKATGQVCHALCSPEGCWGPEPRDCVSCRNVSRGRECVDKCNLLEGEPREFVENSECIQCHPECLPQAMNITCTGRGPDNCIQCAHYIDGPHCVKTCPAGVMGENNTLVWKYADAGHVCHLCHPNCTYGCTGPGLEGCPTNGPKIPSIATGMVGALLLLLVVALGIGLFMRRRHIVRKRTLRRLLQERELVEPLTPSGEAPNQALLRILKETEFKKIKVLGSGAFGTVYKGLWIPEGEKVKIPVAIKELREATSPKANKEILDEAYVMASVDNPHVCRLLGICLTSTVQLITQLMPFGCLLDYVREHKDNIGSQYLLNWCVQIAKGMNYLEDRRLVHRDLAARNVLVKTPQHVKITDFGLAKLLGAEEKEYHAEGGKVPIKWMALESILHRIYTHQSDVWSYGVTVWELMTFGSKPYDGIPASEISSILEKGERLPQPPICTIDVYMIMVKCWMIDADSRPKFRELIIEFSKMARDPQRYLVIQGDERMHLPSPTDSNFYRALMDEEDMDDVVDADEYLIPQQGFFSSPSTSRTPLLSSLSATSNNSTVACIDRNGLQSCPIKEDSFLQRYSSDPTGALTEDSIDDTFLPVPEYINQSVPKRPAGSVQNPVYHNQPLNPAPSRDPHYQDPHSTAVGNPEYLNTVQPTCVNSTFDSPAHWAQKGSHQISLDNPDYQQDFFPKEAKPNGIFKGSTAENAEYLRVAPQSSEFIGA

- IC50 [1]: > 10 µM
Structure (SMILES): C#CCN(C)CCN(C)c1cc(OC)c(Nc2nccc(Nc3cn(C)c4ccccc34)n2)cc1NC(=O)C=C
- Activity (NCI-H1975): 1.98%
- Activity (NCI-H1299): 0.65%
